# Tests used:
# KMS-12-PE cells [1] = assay: Apoptosis measurement (AnnexinV/PI staining) on myeloma cells; type: cell-based; conditions: for EC50 / viability at 12.5 µM / viability at 25 µM / viability at 50 µM: 48 h; for EC50: best-fit model; for viability at 12.5 µM / viability at 25 µM / viability at 50 µM: read-out: % Alive (cells alive of control); for Cytotoxic effect / induction of apoptosis (in words): 12.5-50 µM
# Procedure: (§1) Cytotoxicity was measured as induction of apoptosis in myeloma cell line KMS-12-PE and AML cell line Molm-13, staining the cells with AnnexinV-fluorescein isothiocyanate (AnnexinV-FITC) and propidium iodide (PI). Cell lines were purchased from DSMZ (Braunschweig, Germany) and routinely fingerprinted and tested for mycoplasma negativity. All cell lines were grown in RPMI-1640 medium (Life Technologies, Paisley, UK), and supplemented with 10% fetal calf serum (FCS; PAA, Linz, Austria), L-glutamine 100 µg/mL, and penicillin-streptomycin 100 U/mL. Compounds were dissolved in DMSO at a stock concentration of 50 mM and stored at −20 °C. Briefly, 0.5 × 10^6 cancer cells/mL were incubated for 24 h and 48 h with or without the tested compounds at indicated concentrations. Analyses were performed in duplicates and a solvent control was included. The extent of non-apoptotic cells (AnnexinV/propidium iodide negativity) was calculated as the percentage of viable cells in respect to the untreated control. Data are shown as the mean percentage of viable cells +/− standard deviation (SD) (error bars).
# Molm-13 cells [2] = assay: Apoptosis measurement (AnnexinV/PI staining) on AML cells; type: cell-based; conditions: for EC50: best-fit model; for viability at 12.5 µM: Molm-13, 12.5 µM; for viability at 12.5 µM / viability at 25 µM / viability at 50 µM: 48 h, read-out: % Alive (cells alive of control); for viability at 25 µM: Molm-13, 25 µM; for viability at 50 µM: Molm-13, 50 µM; for Cytotoxic effect / induction of apoptosis (in words): Molm-13, 12.5-50 µM
# Procedure: as §1
# Molm-13 cells [3] = assay: Proliferation, modified MTT assay (EZ4U) on AML cells; type: cell-based; conditions: 48 h; for inhibition at 2.5 µM: Homo sapiens
# Procedure: (§2) Proliferation was measured using a modified MTT assay (EZ4U kit, Biomedica, Vienna, Austria) according to the manufacturer’s instructions. In brief, 2.5 × 10^4 (Molm-13)—5.0 × 10^4 cells (KMS-12-PE cells) were seeded in 96-well plates and substances were added as indicated. Different concentrations are due to the different doubling time of the cells (24 h vs. 48 h). Cells were incubated for 48 h and during the last 7 h of incubation, 3-(4,5-dimethylthiazol-2-yl)-2,5-diphenyltetrazolium bromide was added as a substrate. Reduction of the tetrazolium salt to formazan by the mitochondrial activity of the growing cells was measured as optical density at 492 nm (with 620 nm as reference) on a plate reader. Proliferation (mean +/− SD) was calculated as the percentage of control (without substances). Concentrations used were 10 µM/5 µM/2.5 µM for all substances. Gilteritinib was used as a positive control at 2.5 µM.
# KMS-12-PE cells [4] = assay: Proliferation, modified MTT assay (EZ4U) on myeloma cells; type: cell-based; conditions: 10 to 2.5 µM (gilteritinib 2.5 µM), 48 h
# Procedure: as §2
# FLT3 = target: T1, FLT3 (Homo sapiens, UniProt P36888); assay: FLT3 kinase assay (Z'-LYTE); type: biochemical; conditions: 6.25 nM (lowest concentration), 20 ng FLT3 protein
# T1 construct: purchased Thermo Fisher Scientific Inc. (Waltham, MA, USA)
# T1 sequence (P36888 27-993): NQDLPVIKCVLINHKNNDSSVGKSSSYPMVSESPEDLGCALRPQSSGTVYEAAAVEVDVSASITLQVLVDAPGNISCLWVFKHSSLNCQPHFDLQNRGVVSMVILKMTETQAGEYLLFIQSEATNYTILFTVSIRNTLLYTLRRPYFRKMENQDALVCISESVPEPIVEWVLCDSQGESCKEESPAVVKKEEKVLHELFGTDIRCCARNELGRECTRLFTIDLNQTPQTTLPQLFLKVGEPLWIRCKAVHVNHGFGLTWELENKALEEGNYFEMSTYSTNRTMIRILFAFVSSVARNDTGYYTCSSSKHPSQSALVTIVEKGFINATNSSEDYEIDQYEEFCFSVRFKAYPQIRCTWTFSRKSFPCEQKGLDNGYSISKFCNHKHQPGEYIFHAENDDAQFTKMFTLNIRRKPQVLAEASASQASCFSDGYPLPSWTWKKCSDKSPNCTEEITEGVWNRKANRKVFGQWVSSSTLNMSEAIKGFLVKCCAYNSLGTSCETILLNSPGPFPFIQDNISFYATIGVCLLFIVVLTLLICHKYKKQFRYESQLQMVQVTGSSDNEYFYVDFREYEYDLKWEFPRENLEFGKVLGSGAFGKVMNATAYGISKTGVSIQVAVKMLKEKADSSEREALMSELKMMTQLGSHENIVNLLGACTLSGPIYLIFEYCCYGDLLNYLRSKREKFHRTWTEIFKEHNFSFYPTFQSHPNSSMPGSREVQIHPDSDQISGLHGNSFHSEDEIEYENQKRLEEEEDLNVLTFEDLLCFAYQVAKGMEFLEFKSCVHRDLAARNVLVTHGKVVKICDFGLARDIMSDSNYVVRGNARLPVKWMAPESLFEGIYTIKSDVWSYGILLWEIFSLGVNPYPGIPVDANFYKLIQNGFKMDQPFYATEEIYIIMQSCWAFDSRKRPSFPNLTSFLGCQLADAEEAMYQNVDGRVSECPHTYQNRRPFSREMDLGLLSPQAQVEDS
# Procedure: FLT3 inhibitory activity of compounds 1 and 3 was determined using the Z’-LYTE screening protocol. Z’-LYTE Kinase Assay—Tyrosine 2 Peptide Kit and FLT3 were purchased from Thermo Fisher Scientific Inc. (Waltham, MA, USA). The assay was performed according to the manufacturer’s instructions using a kinase buffer (50 mM HEPES pH 7.5, 0.01% BRIJ-35, 10 mM MgCl2, 1 mM EGTA) containing 0.01 to 20 ng of FLT3. Compounds were measured at concentrations of 50 nM/25 nM/12.5 nM/6.25 nM using gilteritinib as a positive control.
# [5] = Molm-13, 2.5 µM, compared to untreated cells
EC50 (KMS-12-PE cells [1]) [µM],EC50 (KMS-12-PE cells [1]; Homo sapiens) [µM],"EC50 (Molm-13 cells [2]; Homo sapiens, MOLM-13, 48 h) [µM]","EC50 (Molm-13 cells [2]; Molm-13, 48 h) [µM]",inhibition at 0.00625 µM (FLT3) [%],Compound,viability at 12.5 µM (KMS-12-PE cells [1]; Homo sapiens) [%],viability at 25 µM (KMS-12-PE cells [1]; Homo sapiens) [%],viability at 50 µM (KMS-12-PE cells [1]; Homo sapiens) [%],viability at 12.5 µM (Molm-13 cells [2]; Homo sapiens) [%],viability at 25 µM (Molm-13 cells [2]; Homo sapiens) [%],viability at 50 µM (Molm-13 cells [2]; Homo sapiens) [%],Cytotoxic effect / induction of apoptosis (in words) (KMS-12-PE cells [1]),Cytotoxic effect / induction of apoptosis (in words) (Molm-13 cells [2]),"Effect on proliferation (in words) (Molm-13 cells [3]; Molm-13, 2.5 µM, positive control)",Inhibition of proliferation (in words) (KMS-12-PE cells [4]),inhibition at 2.5 µM (Molm-13 cells [3]; [5]) [%],"Inhibition of proliferation (Molm-13 cells [3]; Molm-13, concentrations from 10 to 2.5 µM, compared to untreated cells)"
25.7,26,> 50,–,–,"COc1ccc(-c2cc(=O)c3c(O)cc(O)cc3o2)cc1O [Compound 6, diosmetin]",77.3 ± 6.9,44.2 ± 19,31.1 ± 5.3,91.5 ± 2.8,76.2 ± 6.7,39.8 ± 5.8,–,–,–,–,–,–
–,> 50,> 50,–,–,"O=c1c(O)c(-c2ccc(O)c(O)c2)oc2cc(O)cc(O)c12 [Compound 8, quercetin]",96.6 ± 2.7,79 ± 4.8,43.7 ± 8.3,100 ± 2.2,94.4 ± 3.9,79.8 ± 10.2,induced apoptosis,induced apoptosis,–,–,–,–
–,–,–,–,–,"CCc1nc(C(N)=O)c(Nc2ccc(N3CCC(N4CCN(C)CC4)CC3)c(OC)c2)nc1NC1CCOCC1 [gilteritinib, reference compound]",–,–,–,–,–,–,–,–,high effect,–,–,–
–,> 50,42.3,–,–,"O=c1cc(-c2ccc(O)c(O)c2)oc2cc(O)cc(O)c12 [Compound 5, luteolin]",80.3 ± 5.4,70.5 ± 5.6,50.3 ± 18.4,86.5 ± 5.2,72.4 ± 4,30.2 ± 13.7,–,–,–,–,–,–
–,> 50,> 50,–,–,"COc1cc([C@H]2OC[C@H]3[C@@H]2CO[C@@H]3c2ccc3c(c2)OCO3)ccc1O [Compound 9, (+)-piperitol]",102.8 ± 0.8,100.1 ± 0.8,97.1 ± 4.1,102 ± 1.3,100 ± 2.1,97.5 ± 2.4,–,–,–,–,–,–
–,45.4,~28,28,88,"COc1c(OC)c(O)c2c(=O)cc(-c3ccc(O)cc3)oc2c1OC [Compound 3, xanthomicrol]",69.5 ± 16,62.6 ± 13.1,55.4 ± 13.1,56.4 ± 9.1,53.5 ± 1,47 ± 2.7,–,–,–,marginally,84,up to 93%
–,> 50,> 50,–,–,"O=c1c(O)c(-c2ccc(O)cc2)oc2cc(O)cc(O)c12 [Compound 7, kaempferol]",98 ± 2.7,91.2 ± 15,76.3 ± 17.3,93.1 ± 5.1,83.1 ± 5.7,50.2 ± 11.4,induced apoptosis,induced apoptosis,–,–,–,–
–,> 50,> 50,–,–,"O=C(O)/C=C/c1ccc(O)c(O)c1 [Compound 11, caffeic acid]",102 ± 1.8,102.5 ± 0.9,102.6 ± 0.5,96.9 ± 4.6,98.1 ± 3.8,98.8 ± 2.8,–,–,–,–,–,–
–,> 50,~22,21.7,81,"COc1cc2oc(-c3ccc(O)cc3)cc(=O)c2c(O)c1OC [Compound 1, cirsimaritin]",86.8 ± 14.5,76.6 ± 25.6,58.9 ± 28.6,77.3 ± 9,48.4 ± 12,12.9 ± 4.1,induced apoptosis,induced apoptosis,–,marginally,72,–
–,> 50,> 50,–,–,"O[C@@H]1O[C@H](c2ccc3c(c2)OCO3)[C@H]2CO[C@H](c3ccc4c(c3)OCO4)[C@H]21 [Compound 10, (+)-9α-hydroxysesamin]",99 ± 0.6,96.7 ± 0.5,89.4 ± 0.8,101 ± 1.4,100 ± 2,98.7 ± 1.7,–,–,–,–,–,–
–,> 50,> 50,–,–,"O=c1cc(-c2ccc(O)cc2)oc2cc(O)cc(O)c12 [Compound 4, apigenin]",85.5 ± 10.6,69.4 ± 31.3,59.6 ± 16.1,98 ± 1.6,89.5 ± 3.9,58.4 ± 14.2,–,–,–,–,–,–
–,> 50,> 50,–,–,"O=C(/C=C/c1ccc(O)c(O)c1)O[C@H](Cc1ccc(O)c(O)c1)C(=O)O [Compound 12, (R)-(+)-rosmarinic acid]",100.2 ± 0.9,102 ± 1.5,98.2 ± 1.5,97.6 ± 3.2,98.5 ± 3.6,100.8 ± 0.6,–,–,–,–,–,–
–,> 50,> 50,–,–,"COc1ccc(-c2cc(=O)c3c(O)c(OC)c(OC)cc3o2)cc1OC [Compound 2, 5-desmethylsinensetin]",94.6 ± 10.2,93.4 ± 9.3,93.1 ± 10.2,91.1 ± 3.4,90.9 ± 0.4,88.6 ± 1.8,no effects,no effects,–,–,–,–
–,> 50,> 50,–,–,"COc1cc(/C=C/C(=O)O[C@H](Cc2ccc(O)c(O)c2)C(=O)O)ccc1O [Compound 13, (R)-(+)-3′-O-methylrosmarinic acid]",102 ± 1.6,101 ± 1.8,101 ± 3.4,99.6 ± 2.6,99.4 ± 1.9,97.8 ± 4,–,–,–,–,–,–

# — publication PMC9696366, “Flavones, Flavonols, Lignans, and Caffeic Acid Derivatives from Dracocephalum moldavica and Their In Vitro Effects on Multiple Myeloma and Acute Myeloid Leukemia” (International Journal of Molecular Sciences, 2022)
